Experimental findings from patent publication US4491594A, “Method for treatment of seizures” (Eisai Co., Ltd., priority 1983, dated 1985) are described below.

In series [1] the test system is penicillin cortical focus. Nature of the series: EEG spike discharge in penicillin cortical focus epilepsy model (Co Q10 given after penicillin G). The series is classed as in vivo, Male Sprague-Dawley rats. The source says: (§1) Male Sprague-Dawley rats each having a body weight in the range of 250 to 350 g were used for the experiment.
(§2) Each test rat, anesthetized with ether and immobilized with succinylcholine was subjected to tracheal intubation and fixed to a stereotaxic instrument under artificial respiration. A hole about 3 mm in diameter was made at a part of the skull corresponding to the left-side sensory-motor cortex and the dura mater was cut out to expose the cerebral cortex surface. The skull was immersed in a physiological saline solution. A 2 mm square filter paper impregnated with […] of penicillin (penicillin G) was then applied directly to the cerebral surface to form a penicillin cortical focus. This focus is a typical epilepsy model.
Each rat skull was bared and screw electrodes, four in all, were fixedly planted at the following four locations: two sites 2 mm to the left and right, respectively, from a position 2 mm forward of the bregma, and two sites 3 mm to the left and right, respectively, from a position 6 mm rearward of the bregma. Unipolar and bipolar electroencephalograms (EEG) were recorded by the electrodes. Electrocardiogram readings were simultaneously taken. EEG lead measurements were conducted of (1) four bipolar leads comprising a lead from the left sincipital region to the left occipital region, a lead from the right sincipital region to the right occipital region, a lead from the left to the right sincipital region, and a lead from the left to the right occipital region, and (2) four unipolar leads comprising leads from each of the left sincipital region, left occipital region, right sincipital region and right occipital region.
The corticogram shown in FIG. 6 illustrates the procedure employed. The recordings were carried out from 4 epidural electrodes. LF-LO: bipolar recording from left frontal electrode (LF) to left occipital electrode (LO), RF-RO: bipolar recording from right frontal electrode (RF) to right occipital electrode (RO), LF-RF: bipolar recording from LF to RF, LO-RO: bipolar recording from LO to RO, LF-E: unipolar recording from LF, LO-E: unipolar recording from LO, RF-E: unipolar recording from RF, RO-E: unipolar recording from RO.
83.5 U/μl of penicillin G was absorbed into a 2 mm square filter paper and directly applied to the cerebral cortex surface from an opening formed around the left sensory-motor cortex. coenzyme Q10 (Co Q10) was administered intraperitoneally to each rat, and the EEG patterns were recorded in the same way as above. As a control, a solvent alone was administered intraperitoneally to control rats at the same rate.
Further experiments were conducted by the same procedure as used in Experimental Example 1, except that the time of the administration of coenzyme Q10 was changed. The results are shown in Table 1 below as Experimental Examples 2 to 4. In Table 1, PCG represents penicillin G.

For series [2], the system named is Wistar rats. Nature of the series: Chronic toxicity, 26 weeks per os. The series is classed as in vivo, male and female Wistar rats. Conditions: 6, 60 and 600 mg/kg/day per os, 26 successive weeks. The procedure:
Coenzyme Q10 was forcibly administered per os to both male and female Wistar rats at doses of 6, 60 and 600 mg/kg/day for a period of 26 successive weeks. After this testing period, an examination of the general condition, a blood test, a urine test and a morphological observation (macroscopic and histologic) were conducted.

The nature of series [3]: Acute toxicity, mouse. As to conditions: in vivo, read-out: acute dosages. The source says: (§3) The results of toxicity tests on coenzyme Q10 used in this invention are shown below.
Series [4] has as its system penicillin cortical focus. The series can be described thus: Prevention of EEG spike discharge in penicillin cortical focus model (Co Q10 given before penicillin G). In kind it is in vivo, Male Sprague-Dawley rats. Conditions: Table 1, Experimental Example 4; 100 mg/kg Co Q10 first, PCG applied 64 minutes thereafter.
From the text: as §1, §2
Each rat skull was bared and screw electrodes, four in all, were fixedly planted at the following four locations: two sites 2 mm to the left and right, respectively, from a position 2 mm forward of the bregma, and two sites 3 mm to the left and right, respectively, from a position 6 mm rearward of the bregma. Unipolar and bipolar electroencephalograms (EEG) were recorded by the electrodes. Electrocardiogram readings were simultaneously taken. […]

Series [5] is described as follows: Solubility. In kind it is physicochemical.
The nature of series [6]: Acute toxicity, rat. Conditions: in vivo, read-out: acute dosages.
From the text: as §3

Where [7] appears, read: Experimental Example 1, intraperitoneal.
The mark [8] stands for this setting: Table 1, Experimental Example 2, 100 mg/kg, 107 minutes after applying PCG.
The mark [9] stands for this setting: Table 1, Experimental Example 3, 100 mg/kg, 65 minutes after applying PCG.

For the compound `COC1=C(OC)C(=O)C(C/C=C(\C)CC/C=C(\C)CC/C=C(\C)CC/C=C(\C)CC/C=C(\C)CC/C=C(\C)CC/C=C(\C)CC/C=C(\C)CC/C=C(\C)CCC=C(C)C)=C(C)C1=O` [coenzyme Q10], the “duration of disappearance of the spike discharge” value in series [1] (setting [7]) is reported as “more than 200 minutes”; in series [1] (setting [8]), “more than 120 minutes”; in series [1] (setting [9]), “more than 60 minutes”. Further, in series [1] (setting [7]), the “time to disappearance of the spike discharge after administration of coenzyme Q10” value was “about 10 minutes”. The “time to disappearance of the spike discharge after administration of Co Q10” value in series [1] (setting [8]) worked out at 20 min; in series [1] (setting [9]), 19 min. The “general condition, blood test, urine test and morphological observation vs control group” value in series [2] is recorded as “No differences at all from the control group were observed”. Moreover, the LD50 in series [3] (im, intramuscular) stood at 500 mg/kg; in series [3] (iv, Intravous), 250 mg/kg; in series [3] (oral), 4000 mg/kg; in series [3] (sc, subcutaneous), 500 mg/kg; in series [6] (im, intramuscular), 500 mg/kg; in series [6] (iv, Intravous), 250 mg/kg. Further, the LD50 is 4000 mg/kg in series [6] (oral) and 500 mg/kg in series [6] (sc, subcutaneous). For the same compound, the “time during which no spike discharge occurred” value in series [4] is recorded as “more than 80 minutes”. Further, the solubility entry is recorded as “soluble” in series [5] (in chloroform, benzene, carbon tetrachloride, acetone and ether); “insoluble” in series [5] (in ethanol, water and methanol).
